Data from US20230151309A1, “PLANT-BASED HYDROALCOHOLIC FORMULATIONS FOR IMPROVING LIVER HEALTH” (priority 2021, published 2023).
“Also recorded” adds a separate entry of the source.

What was measured:
[1] = EGCG kinetics in two-compartment HuDMOP (intestine to liver to perfusate), LC-MS/MS; type: in vitro ADME, human
Text: The human dynamic multiple organ plate (HuDMOP) developed by IONTOX (U.S. Pat. No. 9,631,167 B2) was used for testing. This plate is an accepted and unique state-of-the-art in vitro platform for evaluating drugs and chemicals. The FDA recognizes such in vitro models that provide comparative information of relative toxicity between an FDA approved compound and a new submission or in vitro data that focuses on mechanism. The HuDMOP system allows collection of intestinal absorption data, pharmacokinetic data, safety, and efficacy in a single model and can feature up to 6 organ compartments. Flow between the compartments is controlled through selection of dialysis membrane appropriate for the relevant organ systems, pressures, and membrane areas. The HuDMOP system is also used to generate data to support efficacy claims for botanicals.
Simulated blood consisted of saline with human serum albumin.
Epigallocatechin gallate (EGCG) from the novel composition was used to track its intestinal permeability, its movement into simulated blood and delivery to the liver. EGCG content was measured by LC-MS/MS (FIG. 6).

[2] = EGCG level in the botanical-infused alcoholic composition by LC-MS/MS (EGCG stability); type: physicochemical; details: final alcoholic composition, pH below 4.65
Procedure: Intracellular ATP was expressed as % ATP vs. Vehicle Control. Data points represent mean±SEM of N=3 replicates.
The samples were tested by LC-MS/MS using a Waters Acquity UPLC system in-line with a Waters Xevo TO-S mass spectrometer via an electrospray interface. An EGCG powdered standard was purchased from Sigma-Aldrich. The EGCG standard was prepared as a 1 mg/mL solution in PBS containing 0.2% ascorbic acid and 0.005% EDTA to calculate the standard curve. EGCG was spiked into intestinal media at a 5% ratio of standard to media (% v/v). EGCG internal standard (IS) was prepared as a 200 ng/ml solution also using PBS containing 0.2% ascorbic acid and 0.005% EDTA. Ten μL of EGCG IS was added to 25 μL of EGCG standard, vortex mixed, and 2× extracted with 350 μL of ethyl acetate. […]
EGCG and samples of the alcoholic beverage composition were separated using a 1.0 mm×100 mm Waters HSS T3 column with 0.3% acetic acid/HO as mobile phase A and 0.3% acetic acid/acetonitrile as mobile. phase B. For gradient elution, initial B was 1%, increased to 95% Bat 2 minutes, 95% Bat 4 minutes, and back to 1% Bat 4.5 minutes. […] Data was analyzed using Waters Targetlynx application software and automatically exported as a CSV file for reporting.
EGCG was detected in the final alcoholic composition. […]

[3] = system: intestinal tissue; test: Intestinal tissue viability by MTT assay (HuDMOP); type: cell-based, human; details: 100 μL, 24 hr, % viable vs. vehicle control
Procedure: (§1) The model consisted of human 3D epidermal model (Epiltestinal tissue from MarTek) linked to HepG2 cells (Liver) linked by unidirectional simulated blood flow. Simulated blood consisted of saline with human serum albumin.
Diluted ethanol (EtOH) alone or a composition of the present invention diluted to the same level as the EtOH alone test are applied to the apical side of the intestine chamber at the start of the experiment. […] The health of the intestinal tissue was measured with a MTT assay. Pure EGCG was also applied as a control. Tissues were dosed with 100 μL of the solutions and were incubated at 37° C. with 5% CO2 for 24 hr. Cell viability was expressed at % viable vs. vehicle control. Data points represent mean±SEM of N=2 replicates.

[4] = system: Fa2N-4 cells; details: human, 24 h
Procedure: Maximum Tolerated Dose is indicated as the % EtOH where viability as assayed using ATP levels diminished to below 50%.
Samples of botanical-infused alcoholic composition were prepared as follows. The samples were diluted to in deionized water to bring the alcohol concentration down to 8%. […] Intracellular ATP was expressed as % ATP vs. Vehicle Control. Data points represent mean±SEM of N=3 replicates.
The samples were also diluted to 6 and 2% alcohol.

[5] = system: Heme oxygenase-1 (HMOX1); details: liver cells, 12 and 24 hr post exposure
Text: as §1
Total RNA from the liver cells was obtained following the 12 and 24 hr time points post exposure to look at specific gene expression (NQO1, HMOX1, GSR) that are part of a group that protect the cell from oxidative stress and inflammation.
RNA was extracted from liver cells using the RNeasy Mini kit along with Proteinase Kand DNase I digestion to remove proteins and gDNA. DNase I was purchased from Qiagen. Total RNA was quantified using the NanoDrop 2000. The RNA obtained was used to measure the expression of the above target genes by RT-qPCR. […] TaqMan* fast virus 1-step master mix (Thermo Fisher) was used. One-Step RT-qPCR was performed using the QuantStudio 5 PCR Instrument from Thermo Fisher and by following the manufacturer's recommended cycling protocol. All primer/probe sets were obtained from Thermo Fisher.

[6] = system: NADPH Quinone Dehydrogenase 1 (NQO1); details: liver cells, 12 and 24 hr post exposure
Text: as §1
(§2) Total RNA from the liver cells was obtained following the 12 and 24 hr time points post exposure to look at specific gene expression (NQO1, HMOX1, GSR) that are part of a group that protect the cell from oxidative stress and inflammation. An increase in fold change >2 is typically considered biologically relevant.
RNA was extracted from liver cells using the RNeasy Mini kit along with Proteinase Kand DNase I digestion to remove proteins and gDNA. DNase I was purchased from Qiagen. Total RNA was quantified using the NanoDrop 2000. The RNA obtained was used to measure the expression of the above target genes by RT-qPCR. 10.10. TaqMan* fast virus 1-step master mix (Thermo Fisher) was used. One-Step RT-qPCR was performed using the QuantStudio 5 PCR Instrument from Thermo Fisher and by following the manufacturer's recommended cycling protocol. All primer/probe sets were obtained from Thermo Fisher.

[7] = system: Glutathione Reductase (GSR); details: liver cells, 12 and 24 hr post exposure
Text: as §1, §2
RNA was extracted from liver cells using the RNeasy Mini kit along with Proteinase Kand DNase I digestion to remove proteins and gDNA. […] Total RNA was quantified using the NanoDrop 2000. The RNA obtained was used to measure the expression of the above target genes by RT-qPCR. […] TaqMan* fast virus 1-step master mix (Thermo Fisher) was used. One-Step RT-qPCR was performed using the QuantStudio 5 PCR Instrument from Thermo Fisher and by following the manufacturer's recommended cycling protocol. All primer/probe sets were obtained from Thermo Fisher.

[8] = system: HepG2 liver cells; test: Reactive oxygen species (DCFDA/H2DCFDA Cellular ROS Assay Kit) in liver cells; type: cell-based; details: HepG2, 24 hours; ethanol at 2, 3 and 4%
Procedure: Reactive Oxygen Species were measured using the DCFDA/H2DCFDA Cellular ROS Assay Kit from Abeam.
Liver stress was measured by measuring the amount of reactive oxygen species (ROS) produced after exposure to the alcoholic composition. HepG2 liver cells were plated and grown overnight. […] Then the cells were exposed to the Test articles for 24 hours at 37° C. with 5% CO2. […] Amount of ROS was measured using the DCFDA/H2DCFDA Cellular ROS Assay Kit from Abeam.
Data are expressed as Fold Change vs. Negative Control. Bars represent mean±SEM of three replicate samples.

O=C(O[C@@H]1Cc2c(O)cc(O)cc2O[C@@H]1c1cc(O)c(O)c(O)c1)c1cc(O)c(O)c(O)c1 [EGCG, epigallocatechin gallate]
time EGCG starts to appear in the lower basolateral chamber ([1]; after application of composition batch 1 to intestinal tissue): 2 h | time EGCG appears in the liver ([1]; after applying composition batch 1 to the intestinal tissue): 6 h | EGCG in perfusate after processing in the liver compartment ([1]; composition batch 1): remains in the perfusate | EGCG maximum concentration (Cmax) ([1]; composition batch 1, after passing the intestinal membrane): about 1400 ng/ml | time of EGCG peak in basolateral chamber ([1]; composition batch 1, amount constant until 24 hours): 12 h | EGCG stability in the composition [2]: stable | health of the intestinal tissue (cell viability, MTT) [3]: not affected; also recorded: no cytotoxic effect

CCO [ethanol]
Maximum Tolerated Dose (ethanol causing 50% response in % ATP) [4]: 8% | HMOX1 gene expression [5]: induces an increase | NQO1 gene expression [6]: no increase | GSR gene expression [7]: does not produce an increase | health of the intestinal tissue (cell viability, MTT) [3]: not affected

CC(C)(C)OO [positive control, Tert-butyl hydroperoxide]
increase in ROS, Fold Change vs. Negative Control [8]: 22 fold
